Literature values as cited in patent publication US20030149013A1, “Methods of treating bacterial infections in dogs and cats” (priority 2001, published 2003).
Like-named read-outs stand apart in the source and are kept apart here.

Key:
[1] = dog

Row | Compound | Rat t1/2 (PO (per os)) | Canine t1/2 ([1]; PO (per os)) | Rat t1/2 (IM (intramuscular)) | Canine t1/2 ([1]; IM (intramuscular))
1 | CC1=C(C(=O)O)N2C(=O)[C@@H](NC(=O)[C@H](N)C3=CCC=CC3)[C@H]2SC1 [Cephadrine] | 0.82 (PO) h | 3.64 (P0) h |  | 
2 | O=C(Cc1cccs1)N[C@@H]1C(=O)N2C(C(=O)[O-])=C(C[n+]3ccccc3)CS[C@H]12 [Cephalordine] |  |  | 0.5 (IM) h | 0.97 (IM) h
